Here are results for five compounds from patent publication US8461122B2, “Derivatives of morphine-6-glucuronide, preparation method thereof and use of same in therapeutics” (Sanofi, priority 2008, dated 2013).

The subject of the experiment is male Swiss mice. The note with it: tail-flick; for ED50 60 min. post-administration: Table 2 (sc); for Duration of action / % MPE max: subcutaneous. How it is done:
Tests consisting in measuring the in vivo activity of the compounds of the invention on a nociceptive reflex response were performed. In this approach, the latency of the animal's nociceptive reflex response is measured as a pain indicator.
The analgesic activity was determined by means of the “tail-flick” test in male Swiss mice (Iffa Credo). This test is based on the spontaneous nociceptive reflex of removal of the animal's tail caused by a painful heat stimulus (infrared source). The “tail-flick” test (D'Amour-Smith test, 1941, Pharmacol. Exp. Ther.; 72: 74-79) consists, after administering a product, in placing a mouse's tail at the focal point of the infrared source so as to produce a nociceptive heat stimulus (surface temperature of about 55-60° C.). The mouse's reaction time (RT) (latency between the moment when the light beam is switched on and the moment when the mouse removes its tail) was measured in duplicate at different times ranging from 20 minutes to 120 minutes after administration of the product. The heat intensity is regulated such that this removal reflex is between 0.5 and 3.5 seconds in the control animals, and arbitrarily represents the criterion for minimum analgesia (0%). Two reaction time measurements were taken before administration of the product for each mouse, to establish a baseline measurement time. A maximum time of 8 seconds was chosen as the maximum reaction time so as not to induce tissue damage by burning the animals, and arbitrarily represents the criterion for maximum analgesia (100%). The reaction time is increased by the analgesics relative to a control animal not receiving any treatment. The products were administered subcutaneously and orally at doses of between 1.25 and 30 mg/kg (expressed as salt).
The percentage of analgesic activity (% MPE) is determined by the following formula: % MPE=(RTpost-administration−RTpre-administration)*100/(RTmax−RTpre-administration)

[1] abbreviates: dose 10 mg/kg (expressed as salt).
The mark [2] stands for this setting: dose 1.25 mg/kg (expressed as salt).

Read-outs that look alike come from different tables or passages of the source. A value given as a limit tells only on which side of the number the result lay.

For “Morphin-6-yl 5-C-(2-methyl-1,3,4-oxadiazol-5-yl)-α/β-D-xylopyranoside trifluoroacetate [Compound 3]”, the “ED50 60 min. post-administration” value was 3.2 mg/kg. Further, the Duration of action (dose 5 mg/kg) was >120 (5) minutes. Also, the “% MPE max” value (dose 5 mg/kg (expressed as salt)) was 100 (5) %.
Regarding “Morphin-6-yl 5-C-(tetrazol-5-yl)-αβ-D-xylopyranoside trifluoroacetate [Compound 1]”, the “ED50 60 min. post-administration” value worked out at 10 mg/kg. For the same compound, the Duration of action (dose 10 mg/kg) is reported as >120 (10) minutes. Under setting [1], the “% MPE max” value is on record as 50 (10) %.
On the same counts, the results for `Cc1nnc(C2O[C@H](O[C@H]3C=C[C@H]4[C@H]5Cc6ccc(O)c7c6[C@@]4(CCN5C)[C@H]3O7)[C@H](O)[C@@H](O)[C@@H]2O)o1.O=C(O)C(F)(F)F` (stereo partly drawn) [Compound 4, Morphin-6-yl 5-C-(2-methyl-1,3,4-oxadiazol-5-yl)-α-D-xylopyranoside trifluoroacetate] are 8 mg/kg, 90 (10) minutes and 65 (10) %.
On to `CN1CC[C@]23c4c5ccc(O)c4O[C@H]2[C@@H](O[C@@H]2O[C@H](c4nn[nH]n4)[C@@H](O)[C@H](O)[C@H]2O)C=C[C@H]3[C@H]1C5.O=C(O)C(F)(F)F` [Compound 2, Morphin-6-yl 5-C-(tetrazol-5-yl)-β-d-xylopyranoside trifluoroacetate], for which the “ED50 60 min. post-administration” value was <1.25 mg/kg. The Duration of action (dose 1.25 mg/kg) is given as >120 (1.25) minutes. The “% MPE max” value under setting [2] is given as 100 (1.25) %.
For `Cc1nnc(C2O[C@@H](O[C@H]3C=C[C@H]4[C@H]5Cc6ccc(O)c7c6[C@@]4(CCN5C)[C@H]3O7)[C@H](O)[C@@H](O)[C@@H]2O)o1.O=C(O)C(F)(F)F` (stereo partly drawn) [Compound 5, Morphin-6-yl 5-C-(2-methyl-1,3,4-oxadiazol-5-yl)-β-D-xylopyranoside trifluoroacetate], the “ED50 60 min. post-administration” value is <1.25 mg/kg. The “ED50 at 60 minutes” value (oral, 60 minutes) is listed as “less than 2.5 mg/kg”. Moreover, where the note is “oral, dose 10 mg/kg”, the “percentage of maximum analgesic activity (% MPE max index)” value came to 78%. Moreover, the Duration of action (dose 1.25 mg/kg) was >120 (1.25) minutes. Moreover, the “% MPE max” value under setting [2] was 100 (1.25) %.
